Active and inactive are the calls of the source. The rule behind the calls is not given here.
Tests used:
Fibroblast = assay: Antinephropathic cystinosis activity in human cystinotic fibroblast assessed as decrease in cystine level at 50 uM after 24 hrs by Bradford reagent method; format: functional, cell-based
[1] = Cytotoxicity against human cystinotic fibroblast at 50 uM after 72 hrs by alamar blue assay; format: cell-based

## NCCS [CYSTEAMINE]
Fibroblast
  inhibition: Active
[1]
  Activity: Non-toxic

## COCCOCCOCCOCCNC(=O)CCC(=O)NCCSSCCNC(=O)CCC(=O)NCCOCCOCCOCCOC
Fibroblast
  inhibition: Active
[1]
  Activity: Non-toxic

## COCCOCCOCCNC(=O)CCCC(=O)NCCSSCCNC(=O)CCCC(=O)NCCOCCOCCOC
Fibroblast
  inhibition: Active
[1]
  Activity: Non-toxic

## COCCOCCOCCNC(=O)CCC(=O)NCCSSCCNC(=O)CCC(=O)NCCOCCOCCOC
Fibroblast
  inhibition: Active
[1]
  Activity: Non-toxic

## COCCOCCOCCOCCNC(=O)CCCC(=O)NCCSSCCNC(=O)CCCC(=O)NCCOCCOCCOCCOC
Fibroblast
  inhibition: Active

From ChEMBL document CHEMBL1641379, “PEGylated derivatives of cystamine as enhanced treatments for nephropathic cystinosis” (Bioorg Med Chem Lett, 2011)
